# Activity calls are given as the source filed them. The rule behind the calls is not given here.
# Key:
# THP-1 = settings: Homo sapiens, time 70.0 min
# [1] = molecular target: Phosphatidylinositol 4,5-bisphosphate 3-kinase catalytic subunit alpha isoform (Homo sapiens, UniProt P42336); assay: Inhibition of recombinant human PI3Kalpha using l-a-phosphatidylinositol sodium salt and l-a-phosphatidyl-L-serine as substrate incubated for 60 mins in presence of ATP by ADP-glo kinase assay
# [2] = molecular target: Phosphatidylinositol 4,5-bisphosphate 3-kinase catalytic subunit gamma isoform (Homo sapiens, UniProt P48736); assay: Inhibition of recombinant human PI3Kgamma using l-a-phosphatidylinositol sodium salt and l-a-phosphatidyl-L-serine as substrate incubated for 60 mins in presence of ATP by ADP-glo kinase assay
# [3] = molecular target: T1, Phosphatidylinositol 4,5-bisphosphate 3-kinase catalytic subunit delta isoform (Homo sapiens, UniProt O00329); assay: Inhibition of recombinant human PI3Kdelta using l-a-phosphatidylinositol sodium salt and l-a-phosphatidyl-L-serine as substrate incubated for 60 mins in presence of ATP by ADP-glo kinase assay
# T1 sequence (O00329 whole entry): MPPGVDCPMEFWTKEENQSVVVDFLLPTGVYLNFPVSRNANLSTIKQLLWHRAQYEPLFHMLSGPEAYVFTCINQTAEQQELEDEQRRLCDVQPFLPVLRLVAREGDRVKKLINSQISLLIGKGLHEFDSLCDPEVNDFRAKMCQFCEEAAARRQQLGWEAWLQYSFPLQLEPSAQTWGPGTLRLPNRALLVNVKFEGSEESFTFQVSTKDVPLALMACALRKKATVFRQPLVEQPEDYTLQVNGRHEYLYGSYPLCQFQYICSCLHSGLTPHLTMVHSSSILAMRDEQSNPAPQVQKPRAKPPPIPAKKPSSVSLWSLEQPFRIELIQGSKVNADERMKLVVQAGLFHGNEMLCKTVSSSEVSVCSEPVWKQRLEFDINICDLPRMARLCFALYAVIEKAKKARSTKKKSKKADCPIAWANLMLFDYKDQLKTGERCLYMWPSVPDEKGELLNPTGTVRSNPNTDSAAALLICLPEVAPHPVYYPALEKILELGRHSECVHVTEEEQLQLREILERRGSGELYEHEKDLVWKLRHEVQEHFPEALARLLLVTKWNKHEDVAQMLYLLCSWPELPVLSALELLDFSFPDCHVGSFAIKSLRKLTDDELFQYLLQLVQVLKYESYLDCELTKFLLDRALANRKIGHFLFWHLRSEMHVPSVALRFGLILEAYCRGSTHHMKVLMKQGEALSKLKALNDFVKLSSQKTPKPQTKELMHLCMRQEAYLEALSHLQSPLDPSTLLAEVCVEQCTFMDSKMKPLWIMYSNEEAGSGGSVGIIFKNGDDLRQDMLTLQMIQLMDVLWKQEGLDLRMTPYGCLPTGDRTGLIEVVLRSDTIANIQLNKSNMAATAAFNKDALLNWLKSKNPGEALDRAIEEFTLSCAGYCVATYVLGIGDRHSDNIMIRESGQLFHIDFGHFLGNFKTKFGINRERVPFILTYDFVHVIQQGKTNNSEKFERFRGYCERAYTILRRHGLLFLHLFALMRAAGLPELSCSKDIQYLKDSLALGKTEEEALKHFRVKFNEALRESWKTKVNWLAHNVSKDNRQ
# [4] = Kinetic solubility of compound in PBS at pH 7.4 by HPLC analysis; type: physicochemical; settings: for Kinetic_solubility: buffer; for solubility kinetic: PBS, read-out: Kinetic_solubility
# [5] = molecular target: Phosphatidylinositol 4,5-bisphosphate 3-kinase catalytic subunit beta isoform (Homo sapiens, UniProt P42338); assay: Inhibition of recombinant human PI3Kbeta using l-a-phosphatidylinositol sodium salt and l-a-phosphatidyl-L-serine as substrate incubated for 60 mins in presence of ATP by ADP-glo kinase assay
# [6] = Protein binding in human plasma by rapidfire high-throughput MS analysis; type: ADME, cell-free; settings: read-out: PPB (converted)
# [7] = Protein binding in rat plasma by rapidfire high-throughput MS analysis; type: ADME, cell-free; settings: read-out: PPB (converted)
# HepG2 [8] = assay: Cytotoxicity against human HepG2 cells assessed as reduction in cell viability at 10 to 30 uM incubated for 48 hrs by celltiter-glo assay; type: functional, cell-based; settings: dose 10-30 µM
# [9] = Protein binding in rat lung by rapidfire high-throughput MS analysis; type: ADME, tissue-based; settings: read-out: PB (converted)
# [10] = Inhibition of PI3Kdelta/AKT pathway in M-CSF stimulated human THP-1 cells assessed as decrease in AKT phosphorylation preincubated for 60 mins followed by M-CSF stimulation and measured after 10 mins by HTRF analysis; settings: THP-1, read-out: pIC50 (converted)
# [11] = Apparent permeability across basolateral side to apical side in human Caco-2 cells by […] assay; type: ADME, cell-based
# [12] = Microsomal stability in rat liver microsomes assessed as clearance at 0.5 uM incubated for 30 mins; type: ADME, Microsome; settings: read-out: CLH
# HepG2 [13] = assay: Cytotoxicity against human HepG2 cells assessed as reduction in cell viability at 3 to 30 uM incubated for 48 hrs by celltiter-glo assay; type: functional, cell-based; settings: dose 3-30 µM
# [14] = Metabolic stability in rat hepatocytes assessed as clearance measured per 10^6 cells at 0.5 uM incubated for 180 mins; type: ADME, cell-based, Hepatocyte; settings: read-out: CLH
# [15] = Metabolic stability in human lung S9 fraction assessed as half life measured upto 120 mins in presence of NADPH by LC-MS/MS analysis; type: ADME, subcellular
# [16] = Metabolic stability in rat lung S9 fraction assessed as half life measured upto 120 mins in presence of NADPH by LC-MS/MS analysis; type: ADME, subcellular
# [17] = Microsomal stability in human liver microsomes assessed as clearance at 0.5 uM incubated for 30 mins; type: ADME, Microsome; settings: read-out: CLH
# [18] = Metabolic stability in human hepatocytes assessed as clearance measured per 10^6 cells at 0.5 uM incubated for 180 mins; type: ADME, cell-based, Hepatocyte; settings: read-out: CLH
# Sequence of Phosphatidylinositol 4,5-bisphosphate 3-kinase catalytic subunit beta isoform (P42338 whole entry, canonical isoform): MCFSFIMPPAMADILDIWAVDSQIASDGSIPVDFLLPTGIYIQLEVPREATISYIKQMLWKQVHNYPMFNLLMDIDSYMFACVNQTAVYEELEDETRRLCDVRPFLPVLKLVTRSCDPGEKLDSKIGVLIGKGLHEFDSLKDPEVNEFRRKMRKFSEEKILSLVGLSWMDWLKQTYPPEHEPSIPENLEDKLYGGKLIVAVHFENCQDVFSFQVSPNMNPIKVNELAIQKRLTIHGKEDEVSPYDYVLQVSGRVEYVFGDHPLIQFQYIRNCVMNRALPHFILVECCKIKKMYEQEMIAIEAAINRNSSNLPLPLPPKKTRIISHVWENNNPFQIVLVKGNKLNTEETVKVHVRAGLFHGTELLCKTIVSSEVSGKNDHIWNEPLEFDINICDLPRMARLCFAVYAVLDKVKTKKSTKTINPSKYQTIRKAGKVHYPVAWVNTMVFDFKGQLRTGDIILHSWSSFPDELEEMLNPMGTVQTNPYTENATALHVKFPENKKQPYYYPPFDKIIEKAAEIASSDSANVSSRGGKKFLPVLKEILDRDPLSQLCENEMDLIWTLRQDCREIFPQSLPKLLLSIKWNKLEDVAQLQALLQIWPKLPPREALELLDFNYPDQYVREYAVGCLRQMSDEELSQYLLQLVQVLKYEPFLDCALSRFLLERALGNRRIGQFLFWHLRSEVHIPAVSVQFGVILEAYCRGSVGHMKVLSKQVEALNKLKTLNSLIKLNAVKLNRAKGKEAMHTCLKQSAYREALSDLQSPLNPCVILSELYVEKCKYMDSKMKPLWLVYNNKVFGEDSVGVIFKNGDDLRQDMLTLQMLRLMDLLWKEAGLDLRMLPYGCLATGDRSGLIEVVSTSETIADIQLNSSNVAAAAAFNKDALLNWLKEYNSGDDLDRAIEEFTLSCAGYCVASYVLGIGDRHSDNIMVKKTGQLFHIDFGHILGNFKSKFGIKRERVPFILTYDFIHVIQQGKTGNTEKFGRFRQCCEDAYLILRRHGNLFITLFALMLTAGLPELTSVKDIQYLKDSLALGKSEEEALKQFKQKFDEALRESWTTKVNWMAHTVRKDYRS
# Sequence of Phosphatidylinositol 4,5-bisphosphate 3-kinase catalytic subunit alpha isoform (P42336 whole entry, canonical isoform): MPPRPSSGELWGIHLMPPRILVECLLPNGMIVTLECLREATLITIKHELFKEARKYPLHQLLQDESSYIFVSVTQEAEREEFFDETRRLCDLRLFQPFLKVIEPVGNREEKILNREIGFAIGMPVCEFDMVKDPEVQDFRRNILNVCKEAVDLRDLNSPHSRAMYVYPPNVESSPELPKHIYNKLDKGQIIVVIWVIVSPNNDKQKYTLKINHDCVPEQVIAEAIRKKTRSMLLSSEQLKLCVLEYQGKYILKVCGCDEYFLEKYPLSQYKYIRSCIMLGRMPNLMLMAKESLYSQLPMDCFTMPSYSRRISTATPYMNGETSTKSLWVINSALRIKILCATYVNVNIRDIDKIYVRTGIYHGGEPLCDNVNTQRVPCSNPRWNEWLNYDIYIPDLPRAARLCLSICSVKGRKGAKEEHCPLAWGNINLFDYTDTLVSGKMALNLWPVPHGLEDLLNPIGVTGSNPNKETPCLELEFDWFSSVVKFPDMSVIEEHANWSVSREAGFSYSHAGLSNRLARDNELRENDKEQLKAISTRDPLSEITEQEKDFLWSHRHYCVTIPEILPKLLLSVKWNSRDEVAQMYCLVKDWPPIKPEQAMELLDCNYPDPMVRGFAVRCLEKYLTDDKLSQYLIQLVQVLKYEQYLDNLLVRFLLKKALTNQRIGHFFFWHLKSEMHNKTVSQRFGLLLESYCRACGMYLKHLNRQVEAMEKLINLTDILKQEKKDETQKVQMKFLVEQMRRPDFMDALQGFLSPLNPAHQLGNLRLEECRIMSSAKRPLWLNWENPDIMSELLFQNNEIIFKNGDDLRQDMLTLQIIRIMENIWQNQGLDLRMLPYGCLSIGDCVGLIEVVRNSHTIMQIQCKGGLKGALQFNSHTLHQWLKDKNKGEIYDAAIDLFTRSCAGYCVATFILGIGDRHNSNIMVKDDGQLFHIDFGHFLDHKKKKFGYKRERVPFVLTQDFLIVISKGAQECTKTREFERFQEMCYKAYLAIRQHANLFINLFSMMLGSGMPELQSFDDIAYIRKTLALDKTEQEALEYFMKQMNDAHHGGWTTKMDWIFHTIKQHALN
# Sequence of Phosphatidylinositol 4,5-bisphosphate 3-kinase catalytic subunit gamma isoform (P48736 whole entry, canonical isoform): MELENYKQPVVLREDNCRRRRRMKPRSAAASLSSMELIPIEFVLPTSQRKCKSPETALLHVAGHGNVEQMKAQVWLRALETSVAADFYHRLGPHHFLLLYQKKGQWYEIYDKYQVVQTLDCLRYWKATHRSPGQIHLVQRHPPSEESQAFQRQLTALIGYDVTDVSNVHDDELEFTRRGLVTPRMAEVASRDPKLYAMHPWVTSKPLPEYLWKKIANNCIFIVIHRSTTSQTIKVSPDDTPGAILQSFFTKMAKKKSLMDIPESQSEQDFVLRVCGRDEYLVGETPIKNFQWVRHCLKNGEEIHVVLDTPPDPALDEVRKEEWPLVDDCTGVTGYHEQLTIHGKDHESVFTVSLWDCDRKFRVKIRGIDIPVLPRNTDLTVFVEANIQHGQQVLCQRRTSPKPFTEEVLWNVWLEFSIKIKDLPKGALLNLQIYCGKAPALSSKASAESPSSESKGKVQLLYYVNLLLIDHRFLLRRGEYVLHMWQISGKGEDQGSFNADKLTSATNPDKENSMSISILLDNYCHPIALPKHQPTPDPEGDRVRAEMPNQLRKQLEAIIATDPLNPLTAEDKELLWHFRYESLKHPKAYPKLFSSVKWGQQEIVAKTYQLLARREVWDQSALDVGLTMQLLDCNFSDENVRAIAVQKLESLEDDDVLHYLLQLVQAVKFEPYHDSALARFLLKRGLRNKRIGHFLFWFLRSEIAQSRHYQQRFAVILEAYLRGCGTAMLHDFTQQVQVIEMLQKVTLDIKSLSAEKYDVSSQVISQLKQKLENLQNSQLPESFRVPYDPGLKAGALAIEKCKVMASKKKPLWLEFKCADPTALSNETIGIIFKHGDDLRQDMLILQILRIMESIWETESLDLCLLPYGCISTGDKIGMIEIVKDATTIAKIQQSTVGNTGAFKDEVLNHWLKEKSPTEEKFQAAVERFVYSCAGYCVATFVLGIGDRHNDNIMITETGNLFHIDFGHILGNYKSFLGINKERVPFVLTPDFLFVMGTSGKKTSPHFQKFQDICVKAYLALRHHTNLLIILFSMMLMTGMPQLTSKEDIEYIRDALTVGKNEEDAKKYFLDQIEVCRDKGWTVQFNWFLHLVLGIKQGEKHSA
SMILES,Ki [1] [µM],Ki [2] [µM],Ki [3] [µM],Ki [5] [µM],solubility kinetic [4] [µM],other results
CC(C)c1ccc(CCn2c(=O)[nH]c3c(C(N)=O)nc(-c4cccc(O)c4)nc32)cc1,–,–,–,–,–,Kinetic_solubility [4]: Not Active
Cc1ccc(O)cc1-c1nc(C(N)=O)c2[nH]c(=O)n(CCc3ccc(Cl)c(Cl)c3)c2n1,–,–,–,–,498,–
NC(=O)c1nc(-c2cccc(O)c2)nc2c1[nH]c(=O)n2CCc1ccc2c(c1)OCO2,–,–,–,–,–,Kinetic_solubility [4]: Not Active
CN(C)Cc1cccc(-c2nc(C(N)=O)c3[nH]c(=O)n(CCc4ccc(Cl)c(Cl)c4)c3n2)c1,≥ 20,≥ 20,≥ 20,≥ 20,–,–
CC[C@H](Nc1ncnc2[nH]cnc12)c1nc2cccc(F)c2c(=O)n1-c1ccccc1 [IDELALISIB],–,–,–,–,–,fraction unbound [6]: 0.031; fraction unbound [7]: 0.148; Activity (HepG2 [8]): Active; fraction unbound [9]: 0.139; IC50 [10]: 0.0316 µM; Papp B→A [11]: 23.4 ×10⁻⁶ cm/s
NC(=O)c1nc(-c2cccc(O)c2)nc2c1[nH]c(=O)n2CC1CCS(=O)(=O)C1 (stereo not given),0.1,1.26,> 20,0.631,–,–
NC(=O)c1nc(-c2cccc(O)c2)nc2c1[nH]c(=O)n2CCc1ccc(Cl)c(Cl)c1,–,–,–,–,62,–
NC(=O)c1nc(-c2cccc3[nH]ccc23)nc2c1[nH]c(=O)n2CCc1ccc(Cl)c(Cl)c1,≥ 20,–,–,–,–,–
NC(=O)c1nc(-c2cccc(O)c2)nc2c1[nH]c(=O)n2C1CCN(Cc2ccccc2)C1 (stereo not given),0.126,0.316,0.00501,0.02,178,microsomal CLint at 0.5 µM [12]: 133 µL/min/mg; fraction unbound [6]: 0.032; Activity (HepG2 [13]): inactive; fraction unbound [7]: 0.033; hepatocyte CLint at 0.5 µM [14]: 163 µL/min/1e6 cells; half-life [15]: 2.36 h; half-life [16]: > 8.33 h; microsomal CLint at 0.5 µM [17]: 70 µL/min/mg; fraction unbound [9]: 0.021; hepatocyte CLint at 0.5 µM [18]: 55 µL/min/1e6 cells; IC50 [10]: 0.316 µM; Papp B→A [11]: 0.2 ×10⁻⁶ cm/s
CC(Cc1ccc(Cl)c(Cl)c1)n1c(=O)[nH]c2c(C(N)=O)nc(-c3cccc(O)c3)nc21 (stereo not given),0.2,0.398,0.00316,0.00631,414,microsomal CLint at 0.5 µM [12]: 50 µL/min/mg; fraction unbound [6]: < 0.01; Activity (HepG2 [13]): inactive; fraction unbound [7]: < 0.01; hepatocyte CLint at 0.5 µM [14]: 120 µL/min/1e6 cells; half-life [15]: > 8.33 h; half-life [16]: > 8.33 h; microsomal CLint at 0.5 µM [17]: 19 µL/min/mg; fraction unbound [9]: < 0.01; hepatocyte CLint at 0.5 µM [18]: 79 µL/min/1e6 cells; IC50 [10]: 0.1 µM
NC(=O)c1nc(-c2cccc(O)c2)nc2c1[nH]c(=O)n2-c1ccc(F)cc1,0.0794,–,–,–,–,–
NC(=O)c1nc(-c2cccc(O)c2)nc2c1[nH]c(=O)n2CCc1cccs1,–,–,–,–,405,–

# Further lines, with some results ahead:
Ki [1] [µM],Ki [2] [µM],Ki [3] [µM],Ki [5] [µM],solubility kinetic [4] [µM],SMILES,other results
0.158,0.158,0.0631,0.158,–,NC(=O)c1nc(-c2cccc(O)c2)nc2c1[nH]c(=O)n2C1CC1c1ccccc1 (stereo not given),pIC50 (THP-1): inactive; Kinetic_solubility [4]: Not Active
–,1.58,0.126,–,–,NC(=O)c1nc(-c2cccc3[nH]ncc23)nc2c1[nH]c(=O)n2CCc1ccc(Cl)c(Cl)c1,–
0.0398,0.251,0.0398,0.316,–,NC(=O)c1nc(-c2cccc(O)c2)nc2c1[nH]c(=O)n2CC1CCOC1 (stereo not given),–
0.0398,0.126,0.0501,0.158,–,NC(=O)c1nc(-c2cccc(O)c2)nc2c1[nH]c(=O)n2-c1ccc(N2CCOCC2)cc1,–

# From ChEMBL document CHEMBL5325439, “Application of an "inhalation by design" approach to the identification and in-vitro evaluation of novel purine based PI3Kδ inhibitors” (Eur J Med Chem, 2023)
